Experimental data taken from ChEMBL document CHEMBL4507275, “Data for DCP probe BI-2545” (2021).

Key:
[1] = target: Cyclin-dependent kinase 7 (Homo sapiens) (UniProt P50613); conditions: Compound concentration 1000.0 nM
[2] = target: Mitogen-activated protein kinase kinase kinase 19 (Homo sapiens) (UniProt Q56UN5); conditions: Compound concentration 1000.0 nM
[3] = target: Ribosomal protein S6 kinase alpha-2 (Homo sapiens) (UniProt Q15349); conditions: Compound concentration 1000.0 nM
[4] = target: T1, Alpha-1A adrenergic receptor (Homo sapiens) (UniProt P35348); conditions: Compound concentration 10.0 uM
T1 sequence (whole entry): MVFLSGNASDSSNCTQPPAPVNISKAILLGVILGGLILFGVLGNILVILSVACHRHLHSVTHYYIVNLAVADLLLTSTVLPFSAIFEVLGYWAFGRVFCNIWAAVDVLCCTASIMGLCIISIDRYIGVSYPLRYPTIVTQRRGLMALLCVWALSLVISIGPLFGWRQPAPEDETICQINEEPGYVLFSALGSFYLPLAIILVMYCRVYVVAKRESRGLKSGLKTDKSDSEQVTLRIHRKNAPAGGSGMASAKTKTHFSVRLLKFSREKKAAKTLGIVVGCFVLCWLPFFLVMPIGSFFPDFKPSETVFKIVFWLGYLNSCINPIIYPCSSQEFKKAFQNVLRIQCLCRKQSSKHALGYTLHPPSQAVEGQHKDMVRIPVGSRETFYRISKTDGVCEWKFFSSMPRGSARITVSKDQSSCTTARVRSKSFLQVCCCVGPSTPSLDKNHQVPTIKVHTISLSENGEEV

[5] = target: Serine/threonine-protein kinase Chk2 (Homo sapiens) (UniProt O96017); conditions: Compound concentration 1000.0 nM
[6] = test system: ALK tyrosine kinase receptor (Homo sapiens), Q9UM73 [L1196M]; conditions: Compound concentration 1000.0 nM
[7] = target: Bone morphogenetic protein receptor type-2 (Homo sapiens) (UniProt Q13873); conditions: Compound concentration 1000.0 nM
[8] = target: Serine/threonine-protein kinase N2 (Homo sapiens) (UniProt Q16513); conditions: Compound concentration 1000.0 nM
[9] = target: Phosphatidylinositol 4-kinase beta (Homo sapiens) (UniProt Q9UBF8); conditions: Compound concentration 1000.0 nM
[10] = target: Death-associated protein kinase 3 (Homo sapiens) (UniProt O43293); conditions: Compound concentration 1000.0 nM
[11] = target: Vascular endothelial growth factor receptor 3 (Homo sapiens) (UniProt P35916); conditions: Compound concentration 1000.0 nM
[12] = target: 5'-AMP-activated protein kinase catalytic subunit alpha-2 (Homo sapiens) (UniProt P54646); conditions: Compound concentration 1000.0 nM
[13] = target: Cyclin-dependent kinase 8 (Homo sapiens) (UniProt P49336); conditions: Compound concentration 1000.0 nM
[14] = target: Phosphatidylinositol 4-phosphate 5-kinase type-1 alpha (Homo sapiens) (UniProt Q99755); conditions: Compound concentration 1000.0 nM
[15] = target: Interferon-induced, double-stranded RNA-activated protein kinase (Homo sapiens) (UniProt P19525); conditions: Compound concentration 1000.0 nM
[16] = target: Serine/threonine-protein kinase 32C (Homo sapiens) (UniProt Q86UX6); conditions: Compound concentration 1000.0 nM
[17] = target: Tyrosine-protein kinase Tec (Homo sapiens) (UniProt P42680); conditions: Compound concentration 1000.0 nM
[18] = target: cGMP-dependent protein kinase 2 (Homo sapiens) (UniProt Q13237); conditions: Compound concentration 1000.0 nM
[19] = target: Protein kinase C iota type (Homo sapiens) (UniProt P41743); conditions: Compound concentration 1000.0 nM
[20] = target: Ribosomal protein S6 kinase alpha-1 (Homo sapiens) (UniProt Q15418); conditions: Compound concentration 1000.0 nM
[21] = target: Calcium/calmodulin-dependent protein kinase type II subunit gamma (Homo sapiens) (UniProt Q13555); conditions: Compound concentration 1000.0 nM
[22] = target: Tyrosine-protein kinase JAK1 (Homo sapiens) (UniProt P23458); conditions: Compound concentration 1000.0 nM
[23] = target: Mitotic checkpoint serine/threonine-protein kinase BUB1 (Homo sapiens) (UniProt O43683); conditions: Compound concentration 1000.0 nM
[24] = target: Mitogen-activated protein kinase kinase kinase 7 (Homo sapiens) (UniProt O43318); conditions: Compound concentration 1000.0 nM
[25] = target: Calcium/calmodulin-dependent protein kinase type 1D (Homo sapiens) (UniProt Q8IU85); conditions: Compound concentration 1000.0 nM
[26] = target: Receptor tyrosine-protein kinase erbB-2 (Homo sapiens) (UniProt P04626); conditions: Compound concentration 1000.0 nM
[27] = target: Eukaryotic translation initiation factor 2-alpha kinase 1 (Homo sapiens) (UniProt Q9BQI3); conditions: Compound concentration 1000.0 nM
[28] = target: Receptor-type tyrosine-protein kinase FLT3 (Homo sapiens) (UniProt P36888); conditions: Compound concentration 1000.0 nM
[29] = target: Tyrosine-protein kinase Lyn (Homo sapiens) (UniProt P07948); conditions: Compound concentration 1000.0 nM
[30] = target: Serine/threonine-protein kinase MRCK beta (Homo sapiens) (UniProt Q9Y5S2); conditions: Compound concentration 1000.0 nM
[31] = target: Serine/threonine-protein kinase DCLK1 (Homo sapiens) (UniProt O15075); conditions: Compound concentration 1000.0 nM
[32] = target: Mitogen-activated protein kinase 3 (Homo sapiens) (UniProt P27361); conditions: Compound concentration 1000.0 nM
[33] = target: Cyclin-dependent kinase 2 (Homo sapiens) (UniProt P24941); conditions: Compound concentration 1000.0 nM
[34] = test system: Epidermal growth factor receptor (Homo sapiens), P00533 [T790M]; conditions: Compound concentration 1000.0 nM
[35] = target: Platelet-derived growth factor receptor beta (Homo sapiens) (UniProt P09619); conditions: Compound concentration 1000.0 nM
[36] = target: Microtubule-associated serine/threonine-protein kinase 1 (Homo sapiens) (UniProt Q9Y2H9); conditions: Compound concentration 1000.0 nM
[37] = target: Casein kinase I isoform alpha (Homo sapiens) (UniProt P48729); conditions: Compound concentration 1000.0 nM
[38] = target: Serine/threonine-protein kinase OSR1 (Homo sapiens) (UniProt O95747); conditions: Compound concentration 1000.0 nM
[39] = target: Serine/threonine-protein kinase 35 (Homo sapiens) (UniProt Q8TDR2); conditions: Compound concentration 1000.0 nM

Calcium/calmodulin-dependent protein kinase type II subunit gamma (Homo sapiens), sequence (Q13555 whole entry): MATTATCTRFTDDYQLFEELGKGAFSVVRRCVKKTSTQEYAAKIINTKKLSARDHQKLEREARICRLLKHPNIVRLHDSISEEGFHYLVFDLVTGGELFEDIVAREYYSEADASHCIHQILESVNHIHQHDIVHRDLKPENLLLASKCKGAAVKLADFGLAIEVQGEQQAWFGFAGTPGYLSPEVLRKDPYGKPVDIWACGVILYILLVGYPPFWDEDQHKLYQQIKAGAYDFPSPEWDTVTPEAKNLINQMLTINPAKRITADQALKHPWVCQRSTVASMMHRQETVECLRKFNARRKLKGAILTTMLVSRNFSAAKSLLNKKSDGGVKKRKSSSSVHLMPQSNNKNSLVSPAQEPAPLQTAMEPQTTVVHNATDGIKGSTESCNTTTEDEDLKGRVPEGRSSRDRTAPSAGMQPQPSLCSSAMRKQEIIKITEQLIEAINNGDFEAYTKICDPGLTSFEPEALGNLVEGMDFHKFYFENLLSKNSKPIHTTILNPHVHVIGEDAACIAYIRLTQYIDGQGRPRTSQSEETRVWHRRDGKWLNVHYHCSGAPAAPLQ
Phosphatidylinositol 4-phosphate 5-kinase type-1 alpha (Homo sapiens), sequence (Q99755 whole entry): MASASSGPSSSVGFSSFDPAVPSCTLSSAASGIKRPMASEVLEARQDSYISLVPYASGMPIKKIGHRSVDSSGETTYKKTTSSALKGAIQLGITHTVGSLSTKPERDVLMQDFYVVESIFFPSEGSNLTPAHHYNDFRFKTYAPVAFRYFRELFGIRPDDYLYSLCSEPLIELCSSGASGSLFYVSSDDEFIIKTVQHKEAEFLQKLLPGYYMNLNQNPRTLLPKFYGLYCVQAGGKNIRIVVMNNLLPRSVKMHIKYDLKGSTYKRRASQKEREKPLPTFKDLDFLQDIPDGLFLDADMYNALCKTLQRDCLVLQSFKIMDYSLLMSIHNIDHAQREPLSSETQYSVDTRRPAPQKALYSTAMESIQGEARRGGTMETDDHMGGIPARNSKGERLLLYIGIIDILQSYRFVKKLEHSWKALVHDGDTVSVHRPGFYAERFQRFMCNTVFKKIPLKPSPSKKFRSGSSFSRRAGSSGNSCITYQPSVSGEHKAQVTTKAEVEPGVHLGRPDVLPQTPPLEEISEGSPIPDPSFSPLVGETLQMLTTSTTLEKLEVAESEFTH
Serine/threonine-protein kinase DCLK1 (Homo sapiens), sequence (O15075 whole entry): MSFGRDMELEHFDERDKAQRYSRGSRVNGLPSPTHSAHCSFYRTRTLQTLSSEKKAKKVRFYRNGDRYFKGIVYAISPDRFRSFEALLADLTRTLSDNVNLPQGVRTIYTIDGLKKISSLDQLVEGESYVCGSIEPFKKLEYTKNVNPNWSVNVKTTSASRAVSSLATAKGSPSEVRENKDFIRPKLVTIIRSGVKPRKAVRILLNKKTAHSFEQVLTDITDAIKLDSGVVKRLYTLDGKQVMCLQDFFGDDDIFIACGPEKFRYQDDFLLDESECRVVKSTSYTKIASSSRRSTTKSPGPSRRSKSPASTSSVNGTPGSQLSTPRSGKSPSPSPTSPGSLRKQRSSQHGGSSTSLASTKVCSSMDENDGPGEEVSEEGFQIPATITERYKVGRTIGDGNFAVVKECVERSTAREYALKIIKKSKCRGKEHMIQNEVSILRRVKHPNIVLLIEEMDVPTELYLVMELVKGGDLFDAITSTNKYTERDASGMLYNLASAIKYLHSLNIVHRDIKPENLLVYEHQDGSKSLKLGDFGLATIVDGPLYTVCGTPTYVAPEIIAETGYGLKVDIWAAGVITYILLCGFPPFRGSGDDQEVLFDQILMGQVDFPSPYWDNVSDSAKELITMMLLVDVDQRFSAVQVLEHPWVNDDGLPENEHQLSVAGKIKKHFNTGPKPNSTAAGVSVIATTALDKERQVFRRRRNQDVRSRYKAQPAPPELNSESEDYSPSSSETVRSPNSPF
Tyrosine-protein kinase Lyn (Homo sapiens), sequence (P07948 2-512 limits assumed): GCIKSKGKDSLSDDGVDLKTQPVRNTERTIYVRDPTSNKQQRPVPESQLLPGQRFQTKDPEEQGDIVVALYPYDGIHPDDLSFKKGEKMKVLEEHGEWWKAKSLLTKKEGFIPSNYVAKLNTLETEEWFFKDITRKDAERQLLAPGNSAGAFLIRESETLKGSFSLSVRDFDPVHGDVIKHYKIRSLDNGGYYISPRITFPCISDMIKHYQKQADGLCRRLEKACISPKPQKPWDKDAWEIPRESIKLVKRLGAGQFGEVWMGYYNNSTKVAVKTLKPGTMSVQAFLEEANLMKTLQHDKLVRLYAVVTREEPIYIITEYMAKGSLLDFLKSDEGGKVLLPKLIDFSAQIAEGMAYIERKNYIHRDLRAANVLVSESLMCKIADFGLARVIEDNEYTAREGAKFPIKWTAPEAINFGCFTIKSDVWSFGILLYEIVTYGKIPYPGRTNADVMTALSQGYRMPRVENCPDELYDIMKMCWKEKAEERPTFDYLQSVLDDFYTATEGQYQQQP
5'-AMP-activated protein kinase catalytic subunit alpha-2 (Homo sapiens), sequence (P54646 whole entry, looked up): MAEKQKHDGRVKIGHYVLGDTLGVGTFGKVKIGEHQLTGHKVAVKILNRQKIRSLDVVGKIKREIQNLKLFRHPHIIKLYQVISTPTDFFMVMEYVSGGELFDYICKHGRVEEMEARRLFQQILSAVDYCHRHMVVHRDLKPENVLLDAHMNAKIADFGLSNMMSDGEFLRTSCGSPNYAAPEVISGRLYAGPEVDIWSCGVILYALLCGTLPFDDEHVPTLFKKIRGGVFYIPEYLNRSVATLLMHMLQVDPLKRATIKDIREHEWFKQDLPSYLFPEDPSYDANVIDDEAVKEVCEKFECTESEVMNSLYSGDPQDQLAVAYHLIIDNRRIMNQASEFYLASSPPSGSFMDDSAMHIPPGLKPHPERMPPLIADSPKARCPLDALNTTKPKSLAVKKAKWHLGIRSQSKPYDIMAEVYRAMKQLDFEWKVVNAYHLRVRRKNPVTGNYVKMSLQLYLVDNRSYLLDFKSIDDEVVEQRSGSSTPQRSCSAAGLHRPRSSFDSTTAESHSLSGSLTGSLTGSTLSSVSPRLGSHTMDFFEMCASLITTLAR
Death-associated protein kinase 3 (Homo sapiens), sequence (O43293 whole entry, looked up): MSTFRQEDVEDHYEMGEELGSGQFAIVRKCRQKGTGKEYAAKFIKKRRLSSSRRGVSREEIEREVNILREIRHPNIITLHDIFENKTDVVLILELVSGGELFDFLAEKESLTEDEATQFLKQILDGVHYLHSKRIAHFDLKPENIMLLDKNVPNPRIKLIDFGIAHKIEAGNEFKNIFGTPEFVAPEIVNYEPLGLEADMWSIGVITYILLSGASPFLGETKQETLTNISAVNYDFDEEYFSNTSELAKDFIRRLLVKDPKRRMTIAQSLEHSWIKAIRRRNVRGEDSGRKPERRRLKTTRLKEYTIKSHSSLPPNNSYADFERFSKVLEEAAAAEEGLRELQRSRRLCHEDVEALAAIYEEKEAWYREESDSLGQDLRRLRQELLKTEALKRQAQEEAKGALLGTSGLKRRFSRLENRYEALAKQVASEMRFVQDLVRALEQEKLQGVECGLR
Cyclin-dependent kinase 8 (Homo sapiens), sequence (P49336 whole entry): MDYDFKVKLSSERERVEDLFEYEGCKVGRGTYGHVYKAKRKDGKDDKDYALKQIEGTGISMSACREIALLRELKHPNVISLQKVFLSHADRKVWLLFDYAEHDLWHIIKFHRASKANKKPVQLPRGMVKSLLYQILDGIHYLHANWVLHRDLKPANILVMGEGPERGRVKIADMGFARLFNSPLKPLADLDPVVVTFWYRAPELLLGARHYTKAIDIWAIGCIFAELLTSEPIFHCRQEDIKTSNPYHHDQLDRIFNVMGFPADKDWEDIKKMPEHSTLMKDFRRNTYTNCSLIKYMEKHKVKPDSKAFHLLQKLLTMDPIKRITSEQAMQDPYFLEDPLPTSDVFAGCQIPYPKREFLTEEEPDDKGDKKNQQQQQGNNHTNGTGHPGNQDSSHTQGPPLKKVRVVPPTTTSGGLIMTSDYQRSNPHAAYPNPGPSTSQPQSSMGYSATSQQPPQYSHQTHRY
Casein kinase I isoform alpha (Homo sapiens), sequence (P48729 2-337 limits assumed): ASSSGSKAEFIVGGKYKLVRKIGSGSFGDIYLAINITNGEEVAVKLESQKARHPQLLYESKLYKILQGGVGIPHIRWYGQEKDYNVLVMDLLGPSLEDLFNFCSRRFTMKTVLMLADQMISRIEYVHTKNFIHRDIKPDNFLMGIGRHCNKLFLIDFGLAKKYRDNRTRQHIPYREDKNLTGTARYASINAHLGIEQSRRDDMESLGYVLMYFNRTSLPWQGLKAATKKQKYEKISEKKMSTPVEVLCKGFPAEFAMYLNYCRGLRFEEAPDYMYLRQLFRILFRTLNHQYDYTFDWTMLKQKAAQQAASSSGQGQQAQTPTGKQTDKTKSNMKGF
Serine/threonine-protein kinase Chk2 (Homo sapiens), sequence (O96017 whole entry): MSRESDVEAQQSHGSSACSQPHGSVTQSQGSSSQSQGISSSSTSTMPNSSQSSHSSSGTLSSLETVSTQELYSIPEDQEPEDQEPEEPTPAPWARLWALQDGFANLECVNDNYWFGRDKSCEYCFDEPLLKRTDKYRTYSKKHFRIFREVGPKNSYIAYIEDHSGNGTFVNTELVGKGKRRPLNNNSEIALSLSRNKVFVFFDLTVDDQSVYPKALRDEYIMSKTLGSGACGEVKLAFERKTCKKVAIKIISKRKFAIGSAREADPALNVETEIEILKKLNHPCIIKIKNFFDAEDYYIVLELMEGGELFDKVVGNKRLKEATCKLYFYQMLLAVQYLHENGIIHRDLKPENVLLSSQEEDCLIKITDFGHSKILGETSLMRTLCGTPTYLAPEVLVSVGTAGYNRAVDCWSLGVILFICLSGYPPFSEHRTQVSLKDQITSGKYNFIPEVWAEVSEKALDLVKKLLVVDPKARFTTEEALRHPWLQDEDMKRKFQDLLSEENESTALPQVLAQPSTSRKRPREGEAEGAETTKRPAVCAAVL

Row | Structure (SMILES) | residual activity [1] | residual activity [2] | residual activity [3] | inhibition [4] | residual activity [5] | residual activity [6] | residual activity [7] | residual activity [8] | residual activity [9] | residual activity [10] | residual activity [11] | residual activity [12] | residual activity [13] | residual activity [14] | residual activity [15] | residual activity [16] | residual activity [17] | residual activity [18] | residual activity [19] | residual activity [20] | further results
1 | O=C(NC[C@@H]1[C@H]2CN(C(=O)OCc3cc(C(F)(F)F)cc(C(F)(F)F)c3)C[C@@H]12)c1ccc2[nH]nnc2c1 [BI 2545] | 92% | 100% | 100% | 4.06% | 86% | 100% | 90% | 93% | 100% | 94% | 88% | 100% | 100% | 93% | 45% | 90% | 100% | 82% | 98% | 94% | residual activity [21]: 85%; residual activity [22]: 89%; residual activity [23]: 61%; residual activity [24]: 94%; residual activity [25]: 100%; residual activity [26]: 100%; residual activity [27]: 91%; residual activity [28]: 93%; residual activity [29]: 100%; residual activity [30]: 100%; residual activity [31]: 94%; residual activity [32]: 100%; residual activity [33]: 100%; residual activity [34]: 78%; residual activity [35]: 90%; residual activity [36]: 100%; residual activity [37]: 100%; residual activity [38]: 85%; residual activity [39]: 100%
2 | Cc1nccc(COC(=O)N2C[C@@H]3[C@@H](CNC(=O)c4ccc5[nH]nnc5c4)[C@@H]3C2)n1 [BI 3017] | 78% | 90% | 100% | -3.15% | 100% | 93% | 81% | 100% | 97% | 92% | 100% | 97% | 75% | 100% | 100% | 95% | 94% | 100% | 100% | 98% | residual activity [21]: 100%; residual activity [22]: 92%; residual activity [23]: 90%; residual activity [24]: 75%; residual activity [25]: 100%; residual activity [26]: 99%; residual activity [27]: 100%; residual activity [28]: 89%; residual activity [29]: 100%; residual activity [30]: 82%; residual activity [31]: 90%; residual activity [32]: 92%; residual activity [33]: 77%; residual activity [34]: 91%; residual activity [35]: 84%; residual activity [36]: 100%; residual activity [37]: 86%; residual activity [38]: 100%; residual activity [39]: 83%
